{"source": "patent US8901308B2", "about": "“Triazole compounds that modulate Hsp90 activity” (Synta Pharmaceuticals Corp., priority 2004, dated 2014)", "key": {"[1]": {"system": "Her2, an Hsp90 client protein", "assay": "Degradation of Her2 in BT-474 cells (Western blot)", "format": "cell-based, Human", "conditions": "overnight", "description": "Human high-Her2 breast carcinoma BT474 (HTB-20), SK-BR-3 (HTB-30) and MCF-7 breast carcinoma (HTB-22) from American Type Culture Collection, VA, USA were grown in Dulbecco's modified Eagle's medium with 4 mM L-glutamine and antibiotics (100 IU/ml penicillin and 100 ug/ml streptomycine; GibcoBRL). To obtain exponential cell growth, cells were trypsinized, counted and seeded at a cell density of 0.5×10^6 cells/ml regularly, every 3 days. All experiments were performed on day 1 after cell passage.\nAfter treatment, each cytoplasmic sample was prepared from 1×10^6 cells by incubation of cell lysis buffer (#9803, cell Signaling Technology) on ice for 10 minutes. The resulting supernatant used as the cytosol fractions were dissolved with sample buffer for SDS-PAGE and run on a SDS-PAGE gel, blotted onto a nitrocellulose membrane by using semi-dry transfer. Non-specific binding to nitrocellulose was blocked with 5% skim milk in TBS with 0.5% Tween at room temperature for 1 hour, then probed with anti-Her2/ErB2 mAb (rabbit IgG, #2242, Cell Signaling) and anti-Tubulin (T9026, Sigma) as housekeeping control protein. HRP-conjugated goat anti-rabbit IgG (H+L) and HRP-conjugated horse anti-mouse IgG (H+L) were used as secondary Ab (#7074, #7076, Cell Signaling) and LumiGLO reagent, 20× Peroxide (#7003, Cell Signaling) was used for visualization."}, "[2]": {"system": "human tumor cell line MDA-MB-435S", "assay": "MDA-MB-435S nude mouse xenograft model", "format": "in vivo", "conditions": "300 mg/kg body weight IP, 5 times per week for 3 weeks", "description": "FBS was obtained from Sigma-Aldrich Corp. (St. Louis, Mo., USA), and all other reagents were obtained from Invitrogen Corp. (Carlsbad, Calif., USA). Approximately 4−5×10(6) cells that had been cryopreserved in liquid nitrogen were rapidly thawed at 37° C. and transferred to a 175 cm^2 tissue culture flask containing 50 ml of growth media and then incubated at 37° C. in a 5% CO2 incubator. The growth media was replaced every 2-3 days until the flask became 90% confluent, typically in 5-7 days. To passage and expand the cell line, a 90% confluent flask was washed with 10 ml of room temperature phosphate buffered saline (PBS) and the cells were disassociated by adding 5 ml 1× Trypsin-EDTA (Invitrogen) and incubating at 37° C. until the cells detached from the surface of the flask. To inactivate the trypsin, 5 ml of growth media was added and then the contents of the flask were centrifuged to pellet the cells. The supernatant was aspirated and the cell pellet was resuspended in 10 ml of growth media and the cell number determined using a hemocytometer. […]\nSix to eight week old, female Crl:CD-1-nuBR (nude) mice were obtained from Charles River Laboratories (Wilmington, Mass., USA). […] Tumor volumes (V) were calculated by caliper measurement of the width (W), length (L) and thickness (T) of tumors using the following formula: V=[…]×(L×W×T). […]"}}}
{"smiles": "CCc1cc(-c2nnc(S)n2-c2cccc3ccccc23)c(O)cc1O", "note": "[Compound 49, 3-(2,4-Dihydroxy-5-ethyl-phenyl)-4-(naphthalen-1-yl)-5-mercapto-[1,2,4] triazole]", "values": [{"measurement": "Degradation of Her2", "setting": "[1]; 0.5 μM", "value": "partial degradated"}, {"measurement": "Degradation of Her2", "setting": "[1]; 2 μM", "value": "complete degradation"}, {"measurement": "Degradation of Her2", "setting": "[1]; 5 μM", "value": "complete degradation"}, {"measurement": "Toxicity (effect on body weights)", "setting": "[2]", "value": "not associated with significant toxicity"}, {"measurement": "Growth rate of MDA-MB-435S tumors", "setting": "[2]; compared with 100 mg/kg 17-AAG", "value": "decreased the growth rate"}]}
